Results reported in US10294202B2, “Pyrrolidinones as herbicides” (FMC Corporation, priority 2013, dated 2019).

Key:
[1] = system: monochoria; experiment: Test F flood (paddy) test; assay type: in vivo, Monochoria vaginalis; conditions: 21 d, scale 0-100
Text: Three plastic pots (ca. 16-cm diameter) per rate were partially filled with sterilized Tama silt loam soil comprising a 35:50:15 ratio of sand, silt and clay and 2.6% organic matter. Separate plantings for each of the three pots were as follows. Seeds from the U.S. of monochoria (Monochoria vaginalis), sedge, umbrella (small-flower umbrella sedge, Cyperus difformis), bulrush, […] bulrush, Scirpus juncoides), and […] (purple […] coccinea), were planted into one 16-cm pot for each rate. Seeds from the U.S. of flatsedge, rice (rice flatsedge, Cyperus iria), sprangletop, Brdd. (bearded sprangletop, Leptochloa fascicularis), one stand of 9 or 10 water seeded rice seedlings (Rice, W.S. Jap, Oryza sativa cv. 'Japonica-[…]' or Rice, W.S. Ind, 'Indica'), and two stands of 3 or 4 seedlings of rice, transplanted (transplanted rice, Oryza sativa cv. 'Japonica-[…]') were planted into one 16-cm pot for each rate. Seeds from the U.S. of barnyardgrass (Echinochloa crus-galli), […] (common […], Alisma plantago-aquatica), and watergrass, late (late watergrass, Echinochloa oryzicola) were planted into one 16-cm pot for each rate. Plantings were sequential so that crop and weed species were at the 2.0 to 2.5-leaf stage at time of treatment. Potted plants were grown in a greenhouse with day/night temperature settings of 30/27° C., and supplemental balanced lighting was provided to maintain a 16-h photoperiod. Test pots were maintained in the greenhouse until test completion. At time of treatment, test pots were flooded to 3 cm above the soil surface, treated by application of test compounds directly to the paddy water, and then maintained at that water depth for the duration of the test. Effects of treatments on rice and weeds were visually evaluated by comparison to untreated controls after 21 d. Plant response ratings, summarized in Table F, are based on a scale of 0 to 100 where 0 is no effect and 100 is complete control. A dash (-) response means no test result.

[2] = system: foxtail, green; experiment: Test D pre-/postemergence herbicide test; assay type: in vivo, Setaria viridis; conditions: for Plant response rating: Foxtail, Green, scale 0 to 100; for Plant response rating, Foxtail, Green: scale 0 to 100 (0 no effect, 100 complete control)
How it was run: (§1)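 Plants were sown in silt loam for preemergence spraying or in a peat moss/vermiculite mix for postemergence spraying at 2 to 18 cm height. Formulations used a non-phytotoxic solvent mixture with a surfactant. After 7 to 21 days, responses were scored visually from 0 (no effect) to 100 (complete control).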

[3] = system: deadnettle; experiment: Test D pre-/postemergence herbicide test; assay type: in vivo, Lamium amplexicaule; conditions: for Plant response rating: Deadnettle, scale 0 to 100; for Plant response rating, Deadnettle: scale 0 to 100 (0 no effect, 100 complete control)
How it was run: as §1

[4] = system: oilseed rape; experiment: Test D pre-/postemergence herbicide test; assay type: in vivo, Brassica napus; conditions: for Plant response rating: Postemergence, Oilseed Rape, scale 0 to 100; for Plant response rating, Oilseed Rape: Preemergence, scale 0 to 100 (0 no effect, 100 complete control)
How it was run: as §1

[5] = system: radish, wild; experiment: Test D pre-/postemergence herbicide test; assay type: in vivo, Raphanus raphanistrum; conditions: for Plant response rating: Postemergence, Radish, Wild, scale 0 to 100; for Plant response rating, Radish, Wild: Preemergence, scale 0 to 100 (0 no effect, 100 complete control)
How it was run: as §1

[6] = system: lambsquarters; experiment: Test E preemergence herbicide test; assay type: in vivo, Chenopodium album; design: key: 0 = no effect, 100 = complete control
How it was run: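 Seeds sown in silt loam soil received preemergence treatment with compound in a non-phytotoxic solvent mixture containing surfactant. After 21 days in the greenhouse, plants were visually rated against untreated controls on a 0 (no effect) to 100 (complete control) scale.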

O=C1NCC(c2ccc(F)c(F)c2)C1C(=O)Nc1cccc(F)c1F (racemic) [Compound 101]
Plant response rating, Monochoria ([1]; 64 g ai/ha): 75
Plant response rating, Monochoria ([1]; 125 g ai/ha): 100
Plant response rating, Monochoria ([1]; 250 g ai/ha): 100
Plant response rating, Monochoria ([1]; 500 g ai/ha): 100

O=C1NCC(c2cccc(C(F)F)c2)C1C(=O)Nc1ccccc1F (racemic) [Compound 210]
Plant response rating, Monochoria ([1]; 125 g ai/ha): 65
Plant response rating, Monochoria ([1]; 250 g ai/ha): 85
Plant response rating, Monochoria ([1]; 500 g ai/ha): 100

O=C1NCCC1C(=O)N(c1ccc(F)c(F)c1)c1ccccc1F (stereo not drawn) [Compound 5, N-(3,4-difluorophenyl)-N-(2-fluorophenyl)-2-oxo-3-pyrrolidinecarboxamide]
Plant response rating, Monochoria ([1]; 125 g ai/ha): 75
Plant response rating, Monochoria ([1]; 250 g ai/ha): 75
Plant response rating, Monochoria ([1]; 500 g ai/ha): 75
Plant response rating, Monochoria ([1]; 1000 g ai/ha): 75
Plant response rating, Monochoria ([1]; 2000 g ai/ha): 75

O=C1NCC(c2ccc(F)c(F)c2)C1C(=O)Nc1cccc(F)c1F (stereo not drawn) [Compound 17, N-(2,3-difluorophenyl)-4-(3,4-difluorophenyl)-2-oxo-3-pyrrolidinecarboxamide]
Plant response rating ([2]; Postemergence, 16 g ai/ha): 0
Plant response rating ([2]; Postemergence, 31 g ai/ha): 0
Plant response rating ([2]; Postemergence, 62 g ai/ha): 0
Plant response rating ([2]; Postemergence, 125 g ai/ha): 0
Plant response rating ([2]; Postemergence, 250 g ai/ha): 0
Plant response rating ([3]; Postemergence, 16 g ai/ha): 0
Plant response rating ([3]; Postemergence, 31 g ai/ha): 0
Plant response rating ([3]; Postemergence, 62 g ai/ha): 0
Plant response rating ([3]; Postemergence, 125 g ai/ha): 10
Plant response rating ([3]; Postemergence, 250 g ai/ha): 10
Plant response rating ([4]; 16 g ai/ha): 0
Plant response rating ([4]; 31 g ai/ha): 0
Plant response rating ([4]; 62 g ai/ha): 10
Plant response rating ([4]; 125 g ai/ha): 20
Plant response rating ([4]; 250 g ai/ha): 40
Plant response rating ([5]; 16 g ai/ha): 0
Plant response rating ([5]; 31 g ai/ha): 0
Plant response rating ([5]; 62 g ai/ha): 0
Plant response rating ([5]; 125 g ai/ha): 15
Plant response rating ([5]; 250 g ai/ha): 15
Plant response rating, Lambsquarters ([6]; 16 g ai/ha): 0
Plant response rating, Lambsquarters ([6]; 31 g ai/ha): 0
Plant response rating, Lambsquarters ([6]; 62 g ai/ha): 0
Plant response rating, Lambsquarters ([6]; 125 g ai/ha): 0
Plant response rating, Lambsquarters ([6]; 250 g ai/ha): 0
Plant response rating, Monochoria ([1]; 125 g ai/ha): 90
Plant response rating, Monochoria ([1]; 250 g ai/ha): 90
Plant response rating, Monochoria ([1]; 500 g ai/ha): 95
Plant response rating, Monochoria ([1]; 1000 g ai/ha): 95
Plant response rating, Monochoria ([1]; 2000 g ai/ha): 95

O=C1NC[C@H](c2cccc(C(F)(F)F)c2)[C@H]1C(=O)Nc1ccccc1F [Compound 204, (3R,4S)—N-(2-fluorophenyl)-2-oxo-4-[3-(trifluoromethyl)phenyl]-3-pyrrolidinecarboxamide]
Plant response rating, Foxtail, Green ([2]; Preemergence, 62 g ai/ha): 98
Plant response rating, Foxtail, Green ([2]; Preemergence, 125 g ai/ha): 98
Plant response rating, Foxtail, Green ([2]; Preemergence, 31 g ai/ha): 90
Plant response rating ([2]; Preemergence, 250 g ai/ha): 100
Plant response rating, Deadnettle ([3]; Preemergence, 62 g ai/ha): 25
Plant response rating, Deadnettle ([3]; Preemergence, 125 g ai/ha): 25
Plant response rating, Deadnettle ([3]; Preemergence, 31 g ai/ha): 25
Plant response rating ([3]; Preemergence, 250 g ai/ha): 35
Plant response rating, Oilseed Rape ([4]; 62 g ai/ha): 0
Plant response rating, Oilseed Rape ([4]; 125 g ai/ha): 0
Plant response rating, Oilseed Rape ([4]; 31 g ai/ha): 0
Plant response rating, Oilseed Rape ([4]; 250 g ai/ha): 0
Plant response rating, Radish, Wild ([5]; 62 g ai/ha): 0
Plant response rating, Radish, Wild ([5]; 125 g ai/ha): 0
Plant response rating, Radish, Wild ([5]; 31 g ai/ha): 0
Plant response rating, Radish, Wild ([5]; 250 g ai/ha): 0
Plant response rating, Lambsquarters ([6]; 31 g ai/ha): 98
Plant response rating, Lambsquarters ([6]; 62 g ai/ha): 98
Plant response rating, Lambsquarters ([6]; 125 g ai/ha): 90
Plant response rating, Lambsquarters ([6]; 250 g ai/ha): 65
Plant response rating, Monochoria ([1]; 125 g ai/ha): 95
Plant response rating, Monochoria ([1]; 250 g ai/ha): 100
Plant response rating, Monochoria ([1]; 500 g ai/ha): 100

O=C1NC[C@H](c2cccc(C(F)(F)F)c2)[C@H]1C(=O)Nc1cccc(F)c1F [Compound 206]
Plant response rating, Foxtail, Green ([2]; Preemergence, 62 g ai/ha): 95
Plant response rating, Foxtail, Green ([2]; Preemergence, 125 g ai/ha): 98
Plant response rating, Foxtail, Green ([2]; Preemergence, 31 g ai/ha): 85
Plant response rating ([2]; Preemergence, 250 g ai/ha): 98
Plant response rating, Deadnettle ([3]; Preemergence, 62 g ai/ha): 35
Plant response rating, Deadnettle ([3]; Preemergence, 125 g ai/ha): 40
Plant response rating, Deadnettle ([3]; Preemergence, 31 g ai/ha): 20
Plant response rating ([3]; Preemergence, 250 g ai/ha): 75
Plant response rating, Oilseed Rape ([4]; 62 g ai/ha): 0
Plant response rating, Oilseed Rape ([4]; 125 g ai/ha): 0
Plant response rating, Oilseed Rape ([4]; 31 g ai/ha): 0
Plant response rating, Oilseed Rape ([4]; 250 g ai/ha): 5
Plant response rating, Radish, Wild ([5]; 62 g ai/ha): 25
Plant response rating, Radish, Wild ([5]; 125 g ai/ha): 30
Plant response rating, Radish, Wild ([5]; 31 g ai/ha): 25
Plant response rating, Radish, Wild ([5]; 250 g ai/ha): 30
Plant response rating, Lambsquarters ([6]; 31 g ai/ha): 35
Plant response rating, Lambsquarters ([6]; 62 g ai/ha): 65
Plant response rating, Lambsquarters ([6]; 125 g ai/ha): 95
Plant response rating, Lambsquarters ([6]; 250 g ai/ha): 98
Plant response rating, Monochoria ([1]; 64 g ai/ha): 80
Plant response rating, Monochoria ([1]; 125 g ai/ha): 90
Plant response rating, Monochoria ([1]; 250 g ai/ha): 100
Plant response rating, Monochoria ([1]; 500 g ai/ha): 100

CN1CC(c2ccc(F)c(F)c2)C(C(=O)Nc2cccc(F)c2F)C1=O (stereo not drawn) [Compound 303]
Plant response rating, Monochoria ([1]; 62 g ai/ha): 100
Plant response rating, Monochoria ([1]; 125 g ai/ha): 100
Plant response rating, Monochoria ([1]; 250 g ai/ha): 100
Plant response rating, Monochoria ([1]; 500 g ai/ha): 100
